Results from paper PMC12668308, “A Novel Antimalarial Agent that Inhibits Protein Synthesis in Plasmodium falciparum” (Angewandte Chemie (International Ed. in English), 2025).

What was measured:
Test in all cases: iSPP profiling, P. falciparum lysate
Assay type in all cases: binding, Plasmodium falciparum
[1] = test system: 40S ribosomal protein S24 (W7KAD9)
Description: (§1) P. falciparum NF54 lysates were extracted as described in ^[26^] . The parasite asynchronous culture was extracted once 3-5% parasitemia was reached. Saponin lysis was done as described in 2.2.10. Once the parasite pellet was obtained, 2.5 volumes of ice-cold lysis buffer (50 mM Tris/HCl pH 7.5 (Avantor), 5% glycerol (Sigma-Aldrich), 150 mM NaCl (Carl Roth), 1.5 mM MgCl2 (Sigma-Aldrich), 1 mM DTT (Carl Roth), 0.8% IGEPAL CA-630 (Sigma-Aldrich), 1X Halt Protease and Phosphatase Inhibitor-Cocktails EDTA-free (Thermo Fisher Scientific)) was added to the parasite pellet. The lysate solution was subjected to three cycles of flash freeze-thaw with liquid nitrogen and ddH2O at RT. The lysates were centrifuged at 20,000 g for 20 minutes at 4 °C. The soluble protein fraction (supernatant) was collected and the protein content was quantified using the BCA assay (Pierce™ BCA Protein Assay Kit, Thermo Fisher Scientific). The lysate was stored at -80 °C until further use.
(§2) The P. falciparum lysate was thawed on ice and diluted to 0.8 mg/mL. […] Subsequently, the samples were incubated at room temperature for 30 minutes using a rotating mixer. After distribution into a 96-well plate, the samples were treated with increasing concentrations of A.E.A. (v/v) ranging from 14% to 28% (14, 16, 18, 20, 22, 24, 26, and 28%). Following a 20-minute incubation at 37°C with shaking at 750 rpm, the samples were centrifuged at 4400 g for 35 minutes to remove precipitated proteins. The soluble fractions were then pooled in equal volumes into a single sample using the Bravo Automated Liquid Handling Platform. The pooled samples were subsequently prepared for LC-MS/MS analysis.
(§3) The raw LFQ-DIA intensity values of biological replicates across all conditions were normalized to the median abundance using Excel. The normalized values were then log2 transformed in Perseus (v2.0.10.0).^[58^] Missing values were imputed from a normal distribution (width 0.3, down shift 1.5), and p-values were obtained using a two-sample t-test over replicates with a permutation-based false discovery rate correction (FDR 0.05). Volcano plots were generated in RStudio using the EnhancedVolcano package (v. 1.20.0), ^[59^] plotting proteins by statistical significance (y-axis: –Log10 p-value) versus the magnitude of change (x-axis: log2 fold change of protein intensities for each compound condition relative to the vehicle control). The heatmap was generated in Perseus (v2.0.10.0). Dose-dependent curves were generated using normalized protein intensity values, expressed as a ratio to the vehicle control. Plots were created in GraphPad Prism (v8.3.0) using a nonlinear regression model.

[2] = test system: 40S ribosomal protein S4 (W7JT49)
Description: as §1, §2, §3

[3] = test system: 60S ribosomal protein L17 (W7KA36)
Description: as §1, §2, §3

[4] = test system: 60S ribosomal protein L18a (W7JPN9)
Description: as §1, §2, §3

[5] = test system: 60S ribosomal protein L22 (W7K6D9)
Description: as §1, §2, §3

[6] = test system: DNA primase large subunit (W7KFW7)
Description: as §1, §2, §3

DnaJ protein (W7JVI6) = test system: DnaJ protein (W7JVI6)
Description: as §1, §2, §3

[7] = test system: Eukaryotic translation initiation factor 3 subunit A (W7KD62)
Description: as §1, §2, §3

[8] = test system: FACT complex subunit (W7KAC4)
Description: as §1, §2, §3

[9] = test system: PI3K/PI4K catalytic domain-containing protein (W7K7J6)
Description: as §1, §2, §3

[10] = test system: Phospholipid-transporting ATPase (W7JSF3;W7K4C4)
Description: as §1, §2, §3

[11] = test system: Ubiquitin-protein ligase (W7JWT0)
Description: as §1, §2, §3

[12] = test system: Uncharacterized protein (W7JXC3)
Description: as §1, §2, §3

[13] = test system: Uncharacterized protein (W7KIB1)
Description: as §1, §2, §3

[14] = test system: dolichyl-diphosphooligosaccharide--protein glycotransferase (W7K3H0)
Description: as §1, §2, §3

CN1CCN(Cc2ccc(O)c(NC(=O)c3cccc(Oc4cc(C(F)(F)F)ccn4)c3)c2)CC1 [Compound 31, N-(2-hydroxy-5-((4-methylpiperazin-1-yl)methyl)phenyl)-3-((4-(trifluoromethyl)pyridin-2-yl)oxy)benzamide]
log2FC ([1]; 10 µM): 0.51
log2FC ([1]; 50 µM): 0.70
log2FC ([1]; 100 µM): 0.57
log2FC ([1]; 10^-2 µM): 0.44
log2FC ([1]; 10^-3 µM): 0.27
log2FC ([2]; 10 µM): 0.53
log2FC ([2]; 50 µM): 0.68
log2FC ([2]; 100 µM): 0.62
log2FC ([2]; 10^-2 µM): 0.39
log2FC ([2]; 10^-3 µM): 0.19
log2FC ([3]; 10 µM): 0.35
log2FC ([3]; 50 µM): 0.49
log2FC ([3]; 100 µM): 0.40
log2FC ([3]; 10^-2 µM): 0.30
log2FC ([3]; 10^-3 µM): 0.17
log2FC ([4]; 10 µM): 0.72
log2FC ([4]; 50 µM): 1.09
log2FC ([4]; 100 µM): 0.81
log2FC ([4]; 10^-2 µM): 0.75
log2FC ([4]; 10^-3 µM): 0.60
log2FC ([5]; 10 µM): 0.72
log2FC ([5]; 50 µM): 0.75
log2FC ([5]; 100 µM): 0.65
log2FC ([5]; 10^-2 µM): 0.61
log2FC ([5]; 10^-3 µM): 0.18
log2FC ([6]; 10 µM): 0.33
log2FC ([6]; 50 µM): 0.51
log2FC ([6]; 100 µM): 0.41
log2FC ([6]; 10^-2 µM): 0.50
log2FC ([6]; 10^-3 µM): 0.39
log2FC (DnaJ protein (W7JVI6); 10 µM): 0.38
log2FC (DnaJ protein (W7JVI6); 50 µM): 0.51
log2FC (DnaJ protein (W7JVI6); 100 µM): 0.40
log2FC (DnaJ protein (W7JVI6); 10^-2 µM): 0.30
log2FC (DnaJ protein (W7JVI6); 10^-3 µM): 0.12
log2FC ([7]; 10 µM): 0.35
log2FC ([7]; 50 µM): 0.45
log2FC ([7]; 100 µM): 0.31
log2FC ([7]; 10^-2 µM): 0.30
log2FC ([7]; 10^-3 µM): 0.15
log2FC ([8]; 10 µM): 0.30
log2FC ([8]; 50 µM): 0.55
log2FC ([8]; 100 µM): 0.41
log2FC ([8]; 10^-2 µM): 0.48
log2FC ([8]; 10^-3 µM): 0.30
log2FC ([9]; 10 µM): 0.30
log2FC ([9]; 50 µM): 0.44
log2FC ([9]; 100 µM): 0.41
log2FC ([9]; 10^-2 µM): 0.42
log2FC ([9]; 10^-3 µM): 0.17
log2FC ([10]; 10 µM): 0.33
log2FC ([10]; 50 µM): 0.36
log2FC ([10]; 100 µM): 0.30
log2FC ([10]; 10^-2 µM): 0.36
log2FC ([10]; 10^-3 µM): 0.20
log2FC ([11]; 10 µM): 0.52
log2FC ([11]; 50 µM): 0.87
log2FC ([11]; 100 µM): 0.59
log2FC ([11]; 10^-2 µM): 0.50
log2FC ([11]; 10^-3 µM): 0.25
log2FC ([12]; 10 µM): 0.50
log2FC ([12]; 50 µM): 0.70
log2FC ([12]; 100 µM): 0.40
log2FC ([12]; 10^-2 µM): 0.36
log2FC ([12]; 10^-3 µM): 0.02
log2FC ([13]; 10 µM): 1.08
log2FC ([13]; 50 µM): 1.03
log2FC ([13]; 100 µM): 0.88
log2FC ([13]; 10^-2 µM): 1.16
log2FC ([13]; 10^-3 µM): 0.39
log2FC ([14]; 10 µM): 0.53
log2FC ([14]; 50 µM): 0.72
log2FC ([14]; 100 µM): 0.44
log2FC ([14]; 10^-2 µM): 0.59
